Assay results from patent US10793567B2, “Bicyclic inhibitors of histone deacetylase” (Rodin Therapeutics, Inc., priority 2017, dated 2020).

Each compound was assayed on human megakaryocyte progenitors (CFU-Mk) (assay: Human megakaryocyte progenitor CFC proliferation (CFU-Mk) in normal bone marrow). Settings: 3-point dose response, 10 uM.
Type: cell-based
Method: Compounds were tested to evaluate the potential effects on human megakaryocyte progenitor proliferation in the CFU-Mk assay. Clonogenic progenitors of the human megakaryocyte (CFU-Mk) lineage were assessed in a semi-solid, collagen-based matrix containing rhIL-3 (10 ng/mL), rhIL-6 (10 ng/mL) and rhTpo (50 ng/mL).
Normal human bone marrow light density cells (lot #0170525), derived from normal bone marrow (NorCal Biologics, California), were stored at −152° C. until required for the assay. On the day of the experiment, the cells were thawed rapidly, the contents of each vial was diluted in 10 mL of Iscove's modified Dulbecco's medium containing 10% fetal bovine serum (IMDM+10% FBS) and washed by centrifugation (approximately 1200 r.p.m. for 10 minutes, room temperature). The supernatant was discarded and the cell pellets resuspended in a known volume of IMDM+10% FBS. A cell count (3% glacial acetic acid) and viability assessment (trypan blue exclusion test) was performed for the bone marrow sample.
All compounds were used as solutions in DMSO at 10 mM. Two different dosing paradigms were used depending on the study, either a six point dose response with top concentration of 20 μM, or a three point dose response with a top concentration of 10 μM. In six point dose response studies, compounds were tested at six distinct concentrations (20, 6.7, 2.2, 0.74, 0.25 and 0.082 μM), with serial dilutions prepared from the 10 mM stock concentration to achieve concentrations of 6.7, 2.2, 0.74, 0.25 and 0.082 mM. When added to the collagen-based media at 1:1000 (v/v), the final desired test concentrations were achieved. In order to generate the 20 μM final concentration, 8 μL of the 10 mM stock was added to the appropriately labeled tube. For the three point dose response studies, serial dilutions were prepared from the stock concentration to achieve concentrations of 2 and 0.4 mM. When added to the collagen-based media at 1:1000 (v/v), the final test concentrations of 10, 2 and 0.4 μM were achieved.
Clonogenic progenitors of the human megakaryocytic (CFU-Mk) lineages were set up in the media formulation described above. All compounds were added to the medium to give the final desired concentrations (20, 6.67. 2.22, 0.74, 0.25, and 0.082 μM). Solvent control cultures (containing no compound but 0.2% DMSO), as well as a standard control (containing no compound and no DMSO), were also initiated.
Human megakaryocyte progenitor assays were initiated with 1.8×10^5 cells per culture (lot #0170525). Following 14-16 days in culture, the cultures were transferred from the 35 mm dishes to labeled glass slides, were fixed (methanol/acetone) and then stained using an anti-human CD41 antibody and an alkaline phosphate detection system according to manufacturers' instructions. The colonies were assessed microscopically and scored by trained personnel and divided into the following categories based on size; CFU-Mk (3-20), CFU-Mk (21-49), CFU-Mk (≥50).
The mean±1 standard deviation of three replicate cultures was calculated for the progenitors. Two-tailed standard t-tests were performed to assess if there was a difference in the number of colonies generated between solvent control and treated cultures. Due to the potential subjectivity of colony enumeration, a p value of less than 0.01 is deemed significant. To calculate the concentration of 50% inhibition of colony growth (IC50) for each compound, a dose response curve was generated plotting the log of the compound concentration versus the percentage of control colony growth using Graphpad Prism 7.
Megakaryocyte colony enumeration was performed by trained personnel. In addition, the distribution of colony types as well as general colony and cellular morphology was analyzed. The variance in colony number detected in replicate cultures was representative of the historical coefficient of variation for colony enumeration using these types of assays. […]

SMILES	% Control CFU-Mk Total @ 10 uM dose [%]
Cc1ncc(-c2ccc(N)c(NC(=O)N3Cc4cn(CC(F)F)nc4C3)n2)s1 [Compound 5]	36
Cc1ncc2c(n1)CN(C(=O)Nc1nc(-c3ccc(F)cc3)ccc1N)C2 [Compound 14]	31
CCc1ncc2c(n1)CN(C(=O)Nc1nc(-c3ccc(F)cc3)ccc1N)C2 [Compound 17]	28

Same assay, conditions: Homo sapiens; 6-point dose response, top concentration 20 μM; read-out: CFU-Mk Total IC50

SMILES	IC50 [µM]
CCc1ncc2c(n1)CN(C(=O)Nc1nc(-c3cccs3)ccc1N)C2 [Compound 3]	2
Cc1cc2c(cn1)CN(C(=O)Nc1nc(-c3cccnc3)ccc1N)C2 [Compound 12]	> 20
COCCn1cc2c(n1)CN(C(=O)Nc1nc(-c3ccc(F)cc3F)ccc1N)C2 [Compound 9]	10.8
Cc1ncc2c(n1)CN(C(=O)Nc1nc(-c3ccc(F)s3)ccc1N)C2 [Compound 2]	2
